Laboratory results: patent US6403535B1, “Substituted thiazol(in) ylideneamino sulfonylamino (thio)carbonyl-triazolinones” (Bayer Aktiengesellschaft, priority 1998, dated 2002)

Assays:
[1] = tested on: weeds; assay: Post-emergence test, activity against weeds; type: in vivo
Description: (§1) To produce a suitable preparation of active compound, 1 part by weight of active compound is mixed with the stated amount of solvent, the stated amount of emulsifier is added and the concentrate is diluted with water to the desired concentration.
(§2) Test plants of a height of 5 -15 cm are sprayed with the preparation of active compound such that the particular amounts of active compound desired are applied per unit area. The concentration of the spray liquor is chosen so that the particular amounts of active compound desired are applied in 1000 l of water/ha.
(§3) After three weeks, the degree of damage to the plants is rated in % damage in comparison to the development of the untreated control.
(§4) 0%=no effect (like untreated control)

[2] = tested on: Abutilon; assay: Post-emergence test/greenhouse; type: in vivo; conditions: 504 h, after three weeks, read-out: degree of damage, Abutilon; for pest or weed control at 60 g/ha: 60 g of a.i./ha; for pest or weed control at 125 g/ha: 125 g of a.i./ha
Description: as §1, §2, §3, §4

[3] = tested on: Solanum; assay: Post-emergence test/greenhouse; type: in vivo; conditions: 504 h, after three weeks, read-out: degree of damage, Solanum; for pest or weed control at 60 g/ha: 60 g of a.i./ha; for pest or weed control at 125 g/ha: 125 g of a.i./ha
Description: as §1, §2, §3, §4

[4] = tested on: Setaria; assay: Post-emergence test/greenhouse; type: in vivo; conditions: after three weeks
Description: as §1, §2, §3, §4

[5] = tested on: Amaranthus; assay: Post-emergence test/greenhouse; type: in vivo; conditions: 504 h, after three weeks, read-out: degree of damage, Amaranthus; for pest or weed control at 60 g/ha: 60 g of a.i./ha; for pest or weed control at 125 g/ha: 125 g of a.i./ha
Description: as §1, §2, §3, §4

[6] = tested on: Stellaria; assay: Post-emergence test/greenhouse; type: in vivo; conditions: 504 h, after three weeks, read-out: degree of damage, Stellaria; for pest or weed control at 60 g/ha: 60 g of a.i./ha; for pest or weed control at 125 g/ha: 125 g of a.i./ha
Description: as §1, §2, §3, §4

[7] = tested on: Chenopodium; assay: Post-emergence test/greenhouse; type: in vivo; conditions: 504 h, after three weeks, read-out: degree of damage, Chenopodium; for pest or weed control at 60 g/ha: 60 g of a.i./ha; for pest or weed control at 125 g/ha: 125 g of a.i./ha
Description: as §1, §2, §3, §4

[8] = tested on: Chenopodium; assay: Pre-emergence test/greenhouse; type: in vivo; conditions: after three weeks
Description: as §1
(§5) Seeds of the test plants are sown in normal soil. After about 24 hours, the soil is sprayed with the preparation of active compound such that the particular amount of active compound desired is applied per unit area. The concentration of the spray liquor is chosen so that the particular amount of active compound desired is applied in 1000 liters of water per hectare.
as §3, §4

[9] = tested on: Veronica; assay: Pre-emergence test/greenhouse; type: in vivo; conditions: 504 h, after three weeks, read-out: degree of damage, Veronica; for pest or weed control at 125 g/ha: 125 g of a.i./ha
Description: as §1, §5, §3, §4

[10] = tested on: Amaranthus; assay: Pre-emergence test/greenhouse; type: in vivo; conditions: 504 h, after three weeks, read-out: degree of damage, Amaranthus; for pest or weed control at 125 g/ha: 125 g of a.i./ha
Description: as §1, §5, §3, §4

[11] = tested on: Echinochloa; assay: Pre-emergence test/greenhouse; type: in vivo; conditions: 504 h, 125 g of a.i./ha, after three weeks, read-out: degree of damage, Echinochloa
Description: as §1, §5, §3, §4

[12] = tested on: Matricaria; assay: Pre-emergence test/greenhouse; type: in vivo; conditions: 504 h, after three weeks, read-out: degree of damage, Matricaria; for pest or weed control at 125 g/ha: 125 g of a.i./ha
Description: as §1, §5, §3, §4

[13] = tested on: weeds; assay: Pre-emergence test, activity against weeds; type: in vivo
Description: as §1, §5, §3, §4

[14] = tested on: Setaria; assay: Pre-emergence test/greenhouse; type: in vivo; conditions: 250 g of a.i./ha, after three weeks
Description: as §1, §5, §3, §4

[15] = tested on: Polygonum; assay: Post-emergence test/greenhouse; type: in vivo; conditions: 60 g of a.i./ha, after three weeks
Description: as §1, §2, §3, §4

[16] = tested on: Veronica; assay: Post-emergence test/greenhouse; type: in vivo; conditions: 60 g of a.i./ha, after three weeks
Description: as §1, §2, §3, §4

[17] = tested on: Matricaria; assay: Post-emergence test/greenhouse; type: in vivo; conditions: 60 g of a.i./ha, after three weeks
Description: as §1, §2, §3, §4

CCCc1nn(C(=O)NS(=O)(=O)/N=c2\sccn2CCC)c(=O)n1C [Example 2]
activity against weeds [1]: very strong activity | pest or weed control at 60 g/ha [2]: 90% | pest or weed control at 60 g/ha [3]: 95% | degree of damage, Setaria ([4]; 60 g of a.i./ha): 90% | pest or weed control at 60 g/ha [5]: 90% | pest or weed control at 60 g/ha [6]: 90%

CCCn1ccs/c1=N\S(=O)(=O)NC(=O)n1nc(OC(C)C)n(C)c1=O [Example 9]
activity against weeds [1]: very strong activity | pest or weed control at 60 g/ha [7]: 80% | pest or weed control at 60 g/ha [2]: 90% | pest or weed control at 60 g/ha [5]: 90% | pest or weed control at 60 g/ha [6]: 90%

CCCn1ccs/c1=N\S(=O)(=O)NC(=O)n1nc(OC)n(C2CC2)c1=O [Example 29]
degree of damage, Chenopodium ([8]; 125 g of a.i./ha): 100% | pest or weed control at 125 g/ha [9]: 100% | pest or weed control at 125 g/ha [10]: 100% | pest or weed control at 125 g/ha [11]: 95% | pest or weed control at 125 g/ha [12]: 95% | activity against weeds [13]: very strong activity

CCCn1ccs/c1=N\S(=O)(=O)NC(=O)n1nc(OC(C)C)n(C2CC2)c1=O [Example 33]
degree of damage, Chenopodium ([8]; 125 g of a.i./ha): 100% | pest or weed control at 125 g/ha [9]: 95% | pest or weed control at 125 g/ha [10]: 100% | pest or weed control at 125 g/ha [11]: 80% | pest or weed control at 125 g/ha [12]: 100% | activity against weeds [1]: very strong activity | activity against weeds [13]: very strong activity | pest or weed control at 125 g/ha [7]: 100% | pest or weed control at 125 g/ha [2]: 100% | pest or weed control at 125 g/ha [3]: 95% | degree of damage, Setaria ([4]; 125 g of a.i./ha): 80% | pest or weed control at 125 g/ha [5]: 100% | pest or weed control at 125 g/ha [6]: 95%

CCCn1ccs/c1=N\S(=O)(=O)NC(=O)n1nc(OC2CC2)n(C2CC2)c1=O [Example 34]
activity against weeds [1]: very strong activity | pest or weed control at 125 g/ha [7]: 100% | pest or weed control at 125 g/ha [2]: 95% | pest or weed control at 125 g/ha [3]: 100% | degree of damage, Setaria ([4]; 125 g of a.i./ha): 70% | pest or weed control at 125 g/ha [5]: 100% | pest or weed control at 125 g/ha [6]: 100%

CCCn1ccs/c1=N\S(=O)(=O)NC(=O)n1nc(C2CC2)n(C)c1=O [Example 41]
activity against weeds [1]: very strong activity | pest or weed control at 125 g/ha [2]: 90% | pest or weed control at 125 g/ha [3]: 90% | degree of damage, Setaria ([4]; 125 g of a.i./ha): 70% | pest or weed control at 125 g/ha [5]: 90% | pest or weed control at 125 g/ha [6]: 95%

CCCn1ccs/c1=N\S(=O)(=O)NC(=O)n1nc(OCC2CC2)n(C)c1=O [Example 48]
activity against weeds [1]: very strong activity | pest or weed control at 125 g/ha [7]: 100% | pest or weed control at 125 g/ha [2]: 80% | pest or weed control at 125 g/ha [3]: 80% | pest or weed control at 125 g/ha [5]: 95% | pest or weed control at 125 g/ha [6]: 80%

CCCn1ccs/c1=N\S(=O)(=O)NC(=O)n1nc(OCC)n(CC)c1=O [Example 49]
activity against weeds [1]: very strong activity | pest or weed control at 125 g/ha [7]: 100% | pest or weed control at 125 g/ha [2]: 70% | pest or weed control at 125 g/ha [3]: 95% | pest or weed control at 125 g/ha [5]: 100% | pest or weed control at 125 g/ha [6]: 95%

C/C=C/c1nn(C(=O)NS(=O)(=O)/N=c2\sccn2CCC)c(=O)n1C1CC1 [Example 51]
degree of damage, Chenopodium ([8]; 125 g of a.i./ha): 95% | pest or weed control at 125 g/ha [9]: 100% | pest or weed control at 125 g/ha [10]: 100% | pest or weed control at 125 g/ha [12]: 100% | activity against weeds [13]: very strong activity

CCCc1nn(C(=O)NS(=O)(=O)/N=c2\sccn2CCC)c(=O)n1C1CC1 [Example 55]
activity against weeds [1]: very strong activity | pest or weed control at 125 g/ha [7]: 100% | pest or weed control at 125 g/ha [2]: 95% | pest or weed control at 125 g/ha [3]: 90% | pest or weed control at 125 g/ha [5]: 100% | pest or weed control at 125 g/ha [6]: 100%

CCCn1ccs/c1=N\S(=O)(=O)NC(=O)n1nc(OCC)n(C2CC2)c1=O [Example 56]
degree of damage, Chenopodium ([8]; 250 g of a.i./ha): 100% | pest or weed control at 250 g/ha ([9]; 250 g of a.i./ha): 100% | degree of damage, Setaria [14]: 100% | pest or weed control at 250 g/ha ([10]; 250 g of a.i./ha): 100% | pest or weed control at 250 g/ha ([12]; 250 g of a.i./ha): 100%

CC(C)Oc1nn(C(=O)NS(=O)(=O)/N=c2/sccn2CCCF)c(=O)n1C [Example 125]
degree of damage, Chenopodium ([8]; 125 g of a.i./ha): 95% | pest or weed control at 125 g/ha [9]: 100% | pest or weed control at 125 g/ha [10]: 70% | pest or weed control at 125 g/ha [11]: 90% | pest or weed control at 125 g/ha [12]: 100% | melting point: 170 °C | activity against weeds [1]: very strong activity | activity against weeds [13]: very strong activity | pest or weed control at 60 g/ha [2]: 90% | degree of damage, Polygonum [15]: 90% | pest or weed control at 60 g/ha [3]: 90% | pest or weed control at 60 g/ha [6]: 90%

CCOc1nn(C(=O)NS(=O)(=O)/N=c2\sccn2CCCF)c(=O)n1C1CC1 [Example 130]
degree of damage, Chenopodium ([8]; 125 g of a.i./ha): 100% | pest or weed control at 125 g/ha [9]: 100% | pest or weed control at 125 g/ha [10]: 100% | pest or weed control at 125 g/ha [11]: 100% | pest or weed control at 125 g/ha [12]: 100% | melting point: 180 °C | activity against weeds [1]: very strong activity | activity against weeds [13]: very strong activity | pest or weed control at 60 g/ha [7]: 100% | degree of damage, Veronica [16]: 100% | pest or weed control at 60 g/ha [2]: 95% | pest or weed control at 60 g/ha [5]: 100% | pest or weed control at 60 g/ha [6]: 95% | degree of damage, Matricaria [17]: 100%

CC(C)Oc1nn(C(=O)NS(=O)(=O)/N=c2\sccn2CCCF)c(=O)n1C1CC1 [Example 131]
degree of damage, Chenopodium ([8]; 125 g of a.i./ha): 95% | pest or weed control at 125 g/ha [9]: 95% | pest or weed control at 125 g/ha [10]: 100% | pest or weed control at 125 g/ha [11]: 80% | pest or weed control at 125 g/ha [12]: 100% | melting point: 154 °C | activity against weeds [1]: very strong activity | activity against weeds [13]: very strong activity | pest or weed control at 60 g/ha [7]: 95% | degree of damage, Veronica [16]: 90% | pest or weed control at 60 g/ha [2]: 90% | pest or weed control at 60 g/ha [5]: 100% | pest or weed control at 60 g/ha [6]: 95% | degree of damage, Matricaria [17]: 95%
